Reference: patent US11331273B2, “Film-coated tablet having high chemical stability of active ingredient” (Intercept Pharmaceuticals, Inc., priority 2016, dated 2022)
Where “and” joins values, the source holds several entries; their conditions need not be identical. Identical values can stand only once.

Assay: Storage stability of obeticholic acid (unmodified) in test tubes: dimer quantified per Test Example 2
Format: physicochemical
Method: Obeticholic acid (unmodified) was weighed out in amounts of 5 mg into test tubes to serve as individual samples.
Test Lubes containing the obeticholic acid (unmodified) prepared in Example 1 were stored under the following conditions. The amounts of obeticholic acid dimer generated before (initial) and after storage were measured in accordance with Test Example 2. • Four weeks (4 W) at 50° C. and 85% RH (open) • Four weeks (4 W) at 60° C. (closed)
The amount of obeticholic acid dimer generated was measured in the same manner described in Test Example 1, with the exception that the sample solution was prepared as follows.
Acetonitrile/water (9/1) was added in an amount of exactly 10 mL to test tubes that had been retrieved from storage, and the contents were ultrasounded to extract the obeticholic acid. Following centrifugation (10 min at 3000 rpm), the supernatant was made into samples for HPLC assay (500 μg/mL obeticholic acid).

SMILES: CC[C@H]1[C@@H](O)[C@@H]2[C@H](CC[C@]3(C)[C@@H]([C@H](C)CCC(=O)O)CC[C@@H]23)[C@@]2(C)CC[C@@H](O)C[C@@H]12 [Comparative Example 3, 3α,7α-dihydroxy-6α-ethyl-5β-cholan-24-oic acid]
- Amount of obeticholic acid dimer production (%) (50° C., 85% RH, open, 4 W): 0.83%
- Increase (%) in obeticholic acid dimerization from initial product (50° C., 85% RH, open, 4 W): 0.79%
- Amount of obeticholic acid dimer production (%) (60° C., closed, 4 W): 0.81%
- Increase (%) in obeticholic acid dimerization from initial product (60° C., closed, 4 W): 0.77% and 0.78%
- Amount of obeticholic acid dimer production (%) (Initial): 0.04%
